Data on three compounds can be found in PMC10353187, “Discovery of a new potent oxindole multi-kinase inhibitor among a series of designed 3-alkenyl-oxindoles with ancillary carbonic anhydrase inhibitory activity as antiproliferative agents” (BMC Chemistry, 2023).

Bounds are passed on as bounds.

For test [1], the system named is UO-31. Put plainly: NCI-60 single-dose antiproliferative assay (SRB). Type of test: cell-based, human. Particulars: UO-31, Renal cancer; for inhibition at 10 µM: Homo sapiens, UO-31, 10 μM single dose, read-out: Cell Growth inhibition Percent. Put shortly:
(§1)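 Plating at 5000–40,000 cells/well by doubling time; 24 h preincubation; a time-zero plate fixed at drug addition. Compound added at 10 µM final, incubated 48 h. Protein stained with SRB, measured at 515 nm, and GI% derived from Tz, C and Ti.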

The test system of test [2] is NCI-H522. Put plainly: NCI-60 single-dose antiproliferative assay (SRB). Particulars: Homo sapiens; 10 μM single dose; NCI-H522, Non-small cell lung cancer; read-out: Cell Growth inhibition Percent. Type of test: cell-based. Put shortly:
as §1

The subject of test [3] is SW-620. Put plainly: NCI-60 single-dose antiproliferative assay (SRB). Particulars: Homo sapiens; 10 μM single dose; SW-620, Colon cancer; read-out: Cell Growth inhibition Percent. Type of test: cell-based. The method, boiled down: as §1
The test system of test [4] is HOP-62. Put plainly: NCI-60 single-dose antiproliferative assay (SRB). Type of test: cell-based. Particulars: Homo sapiens; 10 μM single dose; HOP-62, Non-small cell lung cancer; read-out: Cell Growth inhibition Percent. The method, boiled down: as §1
The subject of test [5] is U251. Put plainly: NCI-60 single-dose antiproliferative assay (SRB). Type of test: cell-based. Particulars: Homo sapiens, U-251; 10 μM single dose; U251, CNS cancer; read-out: Cell Growth inhibition Percent. Put shortly:
as §1

In test [6] the test system is SF-268. Put plainly: NCI-60 single-dose antiproliferative assay (SRB). Type of test: cell-based. Conditions: Homo sapiens; 10 μM single dose; SF-268, CNS cancer; read-out: Cell Growth inhibition Percent. Put shortly:
as §1

In test [7] the test system is K-562. Put plainly: NCI-60 single-dose antiproliferative assay (SRB). Type of test: cell-based. Conditions: Homo sapiens, K562; 10 μM single dose; K-562, Leukemia; read-out: Cell Growth inhibition Percent. The method, boiled down: as §1
Test [8] concerns SR. Put plainly: NCI-60 single-dose antiproliferative assay (SRB). Conditions: Homo sapiens, 10 μM single dose, Leukemia, read-out: Cell Growth inhibition Percent. Type of test: cell-based. The method, boiled down: as §1
Test [9] relates to MDA-MB-435. Put plainly: NCI-60 single-dose antiproliferative assay (SRB). Type of test: cell-based. Particulars: Homo sapiens; 10 μM single dose; MDA-MB-435, Melanoma; read-out: Cell Growth inhibition Percent. Put shortly: as §1
Test [10] has as its system MCF7. Put plainly: NCI-60 single-dose antiproliferative assay (SRB). Conditions: Homo sapiens; 10 μM single dose; MCF7, Breast cancer; read-out: Cell Growth inhibition Percent. Type of test: cell-based. The method, boiled down: as §1
The subject of test [11] is UACC-62. Put plainly: NCI-60 single-dose antiproliferative assay (SRB). Type of test: cell-based. Particulars: Homo sapiens; 10 μM single dose; UACC-62, Melanoma; read-out: Cell Growth inhibition Percent. The method, boiled down:
as §1

Test [12] deals with HCT-116. Put plainly: NCI-60 single-dose antiproliferative assay (SRB). Type of test: cell-based. Conditions: Homo sapiens; 10 μM single dose; HCT-116, Colon cancer; read-out: Cell Growth inhibition Percent. Put shortly: as §1
Test [13] deals with EKVX. Put plainly: NCI-60 single-dose antiproliferative assay (SRB). Particulars: Homo sapiens, 10 μM single dose, Non-small cell lung cancer, read-out: Cell Growth inhibition Percent. Type of test: cell-based. The method, boiled down: as §1
In test [14] the test system is SF-295. Put plainly: NCI-60 single-dose antiproliferative assay (SRB). Conditions: Homo sapiens; 10 μM single dose; SF-295, CNS cancer; read-out: Cell Growth inhibition Percent. Type of test: cell-based. Put shortly: as §1
The target in test [15] is hCA II (Homo sapiens, UniProt P00918). Put plainly: Stopped flow CO2 hydrase assay.
The target in test [16] is hCA IX (Homo sapiens, UniProt Q16790). Put plainly: Stopped flow CO2 hydrase assay. Conditions: for Selectivity ratio I/IX: Ki hCA I / Ki hCA IX; for Selectivity ratio II/IX: Ki hCA II / Ki hCA IX.
The test system of test [17] is MALME-3 M. Put plainly: NCI-60 single-dose antiproliferative assay (SRB). Particulars: Homo sapiens, 10 μM single dose, Melanoma, read-out: Cell Growth inhibition Percent. Type of test: cell-based. Put shortly: as §1
Test [18] has as its system SN12C. Put plainly: NCI-60 single-dose antiproliferative assay (SRB). Type of test: cell-based. Particulars: Homo sapiens, 10 μM single dose, Renal cancer, read-out: Cell Growth inhibition Percent. The method, boiled down:
as §1

For `O=C1Nc2ccccc2C1=CNc1ccc(CNc2ccc(S(=O)(=O)Nc3ncccn3)cc2)cc1` [Compound 11b, 4-{[4-({[2-Oxoindolin-3-ylidene]methyl}amino)benzyl]amino}-N-(pyrimidin-2-yl)benzenesulfonamide], the “Cell Growth inhibition Percent” value in test [1] (10 μM single dose) was 39.47%. Moreover, the inhibition at 10 µM in test [1] amounted to 39.3%; in test [2] it was 6.92%; in test [3], 4.6%; in [4], 11.3%; in [5] it was 14.4%; in test [6], 1.02%. Further, the inhibition at 10 µM in test [7] worked out at 32.8%; in test [8], 42.2%; in [9], 32%; in test [10], 37.2%; in test [11], 3.27%; in test [12], 13.4%. Moreover, the inhibition at 10 µM in test [13] was 16%; in test [14], 0.84%. Besides, the Ki amounted to 2660 nM in [15] and 7860 nM in [16]. Also, the “Selectivity ratio I/IX” value in test [16] was 1.16. The “Selectivity ratio II/IX” value in [16] is given as 0.34.
For `NS(=O)(=O)c1nnc(NC=C2C(=O)Nc3ccccc32)s1` [Compound 4d, 5-{[(2-Oxoindolin-3-ylidene)methyl]amino}-1,3,4-thiadiazole-2-sulfonamide], the inhibition at 10 µM amounted to 27.5% in test [1]; 0.13% in test [2]; 13.4% in test [4]; 0.06% in test [5]; 1.71% in test [8]; 12.4% in [10]. Also, the results for the inhibition at 10 µM in [11], in [13] and in [14] were 3.05%, 15.8% and 0.84%, respectively. The Ki turned out to be 3.9 nM in [15] and 84.2 nM in test [16]. Besides, the “Selectivity ratio I/IX” value in test [16] was found to be 0.100. Further, the “Selectivity ratio II/IX” value in test [16] came out at 0.046.
Take `O=C(Nc1ccc(NC=C2C(=O)Nc3ccccc32)cc1)Nc1nccs1` [Compound 15c, 1-{4-[((2-Oxoindolin-3-ylidene)methyl)amino]phenyl}-3-(thiazol-2-yl)urea]: the inhibition at 10 µM in test [1] is 51.6%; in test [3] it was 78.6%; in [17], 53.1%; in test [4] it was 62.7%; in test [18] it was 32%; in [5], 58%. Moreover, the inhibition at 10 µM in [6] is 22.8%; in test [7], 82.7%; in test [8] it was 89.3%; in test [9], 153%; in [10] it was 77.3%; in test [11], 75.1%. Further, the inhibition at 10 µM in test [12] is 73%; in [13] it was 65.4%; in [14] it was 29.4%. For the same compound, the Ki in test [15] and in [16] was over 10000 nM throughout.
